In patent US11180462B2, “Microbiocidal oxadiazole derivatives” (SYNGENTA PARTICIPATIONS AG, priority 2015, dated 2021):

Assays:
[1] = tested on: Puccinia recondita f. Sp. Tritici; assay: Fungicidal activity against Puccinia recondita f. sp. tritici / wheat / leaf disc preventative (brown rust); assay type: in vivo; conditions: foliar, 200 ppm in the applied formulation, wheat leaf segments, preventative, compared to untreated control leaf disks, read-out: disease control
Method in brief: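 Compound application precedes infection: segments of wheat cv. Kanzler, sprayed at 200 ppm, are inoculated with a spore suspension after 1 day. Incubation is at 19° C. with 75% relative humidity and 12 h light/12 h darkness, and control versus untreated leaves is rated 7 to 9 days post-application.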

[2] = tested on: Glomerella lagenarium (Colletotrichum lagenarium); assay: Fungicidal activity against Glomerella lagenarium (Colletotrichum lagenarium) liquid culture / cucumber / preventative (anthracnose); assay type: cell-based; conditions: Colletotrichum orbiculare; 20 ppm in the applied formulation; liquid culture (PDB), growth inhibition measured photometrically after 3 to 4 days; compared to untreated control; read-out: disease control
Method in brief: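 Photometric read-out of fungal growth after 2–7 days, expressed as percent antifungal activity versus untreated check. Cryo-stored conidia in PDB; compound at 20 ppm; dark, 24 °C, 96% RH.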

[3] = tested on: Puccinia recondita f. Sp. Tritici; assay: Fungicidal activity against Puccinia recondita f. sp. tritici / wheat / leaf disc curative (brown rust); assay type: in vivo; conditions: foliar, 24 h, 200 ppm in the applied formulation, wheat leaf segments, curative (applied 1 day after inoculation), compared to untreated control leaf disks, read-out: disease control
Method in brief: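 Curative test on wheat leaf segments (cv. Kanzler) on agar, inoculated with spore suspension and held dark at 19° C, 75% RH; formulated compound in water applied 1 day after inoculation. Incubated at 19° C, 75% RH, 12 h light/12 h dark; percent disease control versus untreated scored 6 to 8 days after application.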

[4] = tested on: Phakopsora Pachyrhizi; assay: Fungicidal activity against Phakopsora pachyrhizi / soybean / leaf disc preventative (Asian soybean rust); assay type: in vivo; conditions: foliar, 200 ppm in the applied formulation, soybean leaf disks, compared to untreated control leaf disks, read-out: disease control
Method in brief: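 Preventative soybean leaf-disc test: discs on water agar sprayed with diluted formulated compound, inoculated one day later with spores on the lower surface. Held 24–36 h dark at 20°C, 75% rh, then 12 h light/day; percent disease control versus untreated discs scored 12–14 days after application.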

CON(Cc1ccc(-c2noc(C(F)(F)F)n2)cc1)C(=O)Cn1cncn1 [Compound 1.808, N-methoxy-2-(1,2,4-triazol-1-yl)-N-[[4-[5-(trifluoromethyl)-1,2,4-oxadiazol-3-yl]phenyl]methyl]-acetamide]
melting point: 125.1 to 127.2 °C

CON(Cc1ccc(-c2noc(C(F)(F)F)n2)cc1)C(=O)C(C)NC(=O)OC(C)(C)C (stereo not drawn) [Compound 1.791, tert-butyl N-[2-(methoxy-[[4-[5-(trifluoromethyl)-1,2,4-oxadiazol-3-yl]phenyl]methyl]-amino]-1-methyl-2-oxo-ethyl]carbamate]
melting point: 108.8 to 111.9 °C | pest or weed control at 200 ppm [1]: ≥ 80% | inhibition of growth at 20 ppm [2]: ≥ 80% | pest or weed control at 200 ppm [3]: ≥ 80%

CON(Cc1ccc(-c2noc(C(F)(F)F)n2)cc1)C(=O)NCC1(O)CC1 [Compound 3.54, 3-[(1-hydroxycyclopropyl)-methyl]-1-methoxy-1-[[4-[5-(trifluoromethyl)-1,2,4-oxadiazol-3-yl]phenyl]methyl]urea]
melting point: 107 to 110 °C | pest or weed control at 200 ppm [1]: ≥ 80% | inhibition of growth at 20 ppm [2]: ≥ 80% | pest or weed control at 200 ppm [3]: ≥ 80%

CON(Cc1ccc(-c2noc(C(F)(F)F)n2)cc1)C(=O)CNC(C)=O [Compound 1.794, 2-acetamido-N-methoxy-N-[[4-[5-(trifluoromethyl)-1,2,4-oxadiazol-3-yl]phenyl]methyl]-acetamide]
melting point: 132.8 to 134.9 °C | pest or weed control at 200 ppm [1]: ≥ 80% | inhibition of growth at 20 ppm [2]: ≥ 80% | pest or weed control at 200 ppm [3]: ≥ 80%

CON(Cc1ccc(-c2noc(C(F)(F)F)n2)cc1)C(=O)C(C)NC(=O)C1CC1 (stereo not drawn) [Compound 1.798, N-[2-(methoxy-[[4-[5-(trifluoromethyl)-1,2,4-oxadiazol-3-yl]phenyl]methyl]-amino]-1-methyl-2-oxo-ethyl]-cyclopropane-carboxamide]
melting point: 129.7 to 134 °C

CN(Cc1ccc(-c2noc(C(F)(F)F)n2)cc1)C(=O)CO [Compound 1.593, 2-hydroxy-N-methyl-N-[[4-[5-(trifluoromethyl)-1,2,4-oxadiazol-3-yl]phenyl]methyl]-acetamide]
melting point: 54 to 60 °C | pest or weed control at 200 ppm [1]: ≥ 80% | inhibition of growth at 20 ppm [2]: ≥ 80% | pest or weed control at 200 ppm [3]: ≥ 80%

CON(Cc1ccc(-c2noc(C(F)(F)F)n2)cc1)C(=O)CNC(=O)C1CC1 [Compound 1.790, N-[2-[methoxy-[[4-[5-(trifluoro-methyl)-1,2,4-oxadiazol-3-yl]phenyl]methyl]-amino]-2-oxo-ethyl]-cyclopropane-carboxamide]
melting point: 135.9 to 138.5 °C | pest or weed control at 200 ppm [1]: ≥ 80% | inhibition of growth at 20 ppm [2]: ≥ 80% | pest or weed control at 200 ppm [3]: ≥ 80%

CCC(=O)NC(C(=O)N(Cc1ccc(-c2noc(C(F)(F)F)n2)cc1)OC)C(C)C (stereo not drawn) [Compound 1.802, N-methoxy-3-methyl-2-(propanoylamino)-N-[[4-[5-(trifluoromethyl)-1,2,4-oxadiazol-3-yl]phenyl]methyl]-butanamide]
melting point: 98.5 to 100.6 °C

CCOC(=O)c1cnn(CC(=O)N(Cc2ccc(-c3noc(C(F)(F)F)n3)cc2)OC)c1 [Compound 1.807, ethyl 1-[2-[methoxy-[[4-[5-(trifluoromethyl)-1,2,4-oxadiazol-3-yl]phenyl]methyl]-amino]-2-oxo-ethyl]pyrazole-4-carboxylate]
melting point: 79.1 to 80.4 °C

CNC(=O)CNC(=O)N(Cc1ccc(-c2noc(C(F)(F)F)n2)cc1)OC [Compound 3.50, 2-[[methoxy-[[4-[5-(trifluoromethyl)-1,2,4-oxadiazol-3-yl]phenyl]methyl]-carbamoyl]amino]-N-methyl-acetamide]
melting point: 126 to 130 °C | pest or weed control at 200 ppm [1]: ≥ 80% | pest or weed control at 200 ppm [3]: ≥ 80%

CON(Cc1ccc(-c2noc(C(F)(F)F)n2)cc1)C(=O)C(C)N.Cl (stereo not drawn) [Compound 1.792, [2-[methoxy-[[4-[5-(trifluoromethyl)-1,2,4-oxadiazol-3-yl]phenyl]methyl]-amino]-1-methyl-2-oxo-ethyl]ammonium; chloride]
melting point: 200.7 to 203.2 °C | pest or weed control at 200 ppm [1]: ≥ 80% | pest or weed control at 200 ppm [3]: ≥ 80%

CON(Cc1ccc(-c2noc(C(F)(F)F)n2)cc1)C(=O)CNC(=O)OC(C)(C)C [Compound 1.787, tert-butyl N-[2-(methoxy-[[4-[5-(trifluoromethyl)-1,2,4-oxadiazol-3-yl]phenyl]methyl]-amino]-2-oxo-ethyl]carbamate]
melting point: 80 to 83.1 °C | pest or weed control at 200 ppm [1]: ≥ 80% | inhibition of growth at 20 ppm [2]: ≥ 80% | pest or weed control at 200 ppm [3]: ≥ 80%

CCC(=O)N1CCCC1C(=O)N(Cc1ccc(-c2noc(C(F)(F)F)n2)cc1)OC (stereo not drawn) [Compound 1.803, N-methoxy-1-propanoyl-N-[[4-[5-(trifluoromethyl)-1,2,4-oxadiazol-3-yl]phenyl]methyl]-pyrrolidine-2-carboxamide]
melting point: 148.2 to 150.6 °C

CON(Cc1ccc(-c2noc(C(F)(F)F)n2)cc1)C(=O)C1CCCN1C(C)=O (stereo not drawn) [Compound 1.805, 1-acetyl-N-methoxy-N-[[4-[5-(trifluoromethyl)-1,2,4-oxadiazol-3-yl]phenyl]methyl]-pyrrolidine-2-carboxamide]
melting point: 93.9 to 96.8 °C

CON(Cc1ccc(-c2noc(C(F)(F)F)n2)cc1)C(=O)C1CCCN1.Cl (stereo not drawn)
melting point: 185.5 to 188.5 °C

CON(Cc1ccc(-c2noc(C(F)(F)F)n2)cn1)C(=O)c1ccccc1Cl [Compound 1.572, 2-chloro-N-methoxy-N-[[5-[5-(trifluoromethyl)-1,2,4-oxadiazol-3-yl]-2-pyridyl]methyl]-benzamide]
melting point: 80 to 89 °C | pest or weed control at 200 ppm [1]: ≥ 80% | inhibition of growth at 20 ppm [2]: ≥ 80%

CCC(=O)NC(C)C(=O)N(Cc1ccc(-c2noc(C(F)(F)F)n2)cc1)OC (stereo not drawn) [Compound 1.797, N-methoxy-2-(propanoylamino)-N-[[4-[5-(trifluoromethyl)-1,2,4-oxadiazol-3-yl]phenyl]methyl]-propanamide]
melting point: 121.7 to 123.9 °C

CNC(=O)N(Cc1ccc(-c2noc(C(F)(F)F)n2)cc1)C1CC1 [Compound 3.35, 1-cyclopropyl-3-methyl-1-[[4-[5-(trifluoromethyl)-1,2,4-oxadiazol-3-yl]phenyl]methyl]urea]
melting point: 113 to 114 °C | pest or weed control at 200 ppm [1]: ≥ 80% | inhibition of growth at 20 ppm [2]: ≥ 80%

CON(Cc1ccc(-c2noc(C(F)(F)F)n2)cc1)C(=O)CBr [Compound 1.806, 2-bromo-N-methoxy-N-[[4-[5-(trifluoromethyl)-1,2,4-oxadiazol-3-yl]phenyl]methyl]-acetamide]
melting point: 81.2 to 84.9 °C

CCCN(Cc1ccc(-c2noc(C(F)(F)F)n2)cc1)C(=O)C(CC)COC (stereo not drawn) [Compound 1.661, 2-(methoxymethyl)-N-propyl-N-[[4-[5-(trifluoromethyl)-1,2,4-oxadiazol-3-yl]phenyl]methyl]-butanamide]
pest or weed control at 200 ppm [1]: ≥ 80% | inhibition of growth at 20 ppm [2]: ≥ 80% | pest or weed control at 200 ppm [3]: ≥ 80% | pest or weed control at 200 ppm [4]: ≥ 80%

CONC(=O)N(Cc1ccc(-c2noc(C(F)(F)F)n2)cc1)OC [Compound 3.22, 1,3-dimethoxy-1-[[4-[5-(trifluoromethyl)-1,2,4-oxadiazol-3-yl]phenyl]methyl]urea]
pest or weed control at 200 ppm [1]: ≥ 80% | inhibition of growth at 20 ppm [2]: ≥ 80% | pest or weed control at 200 ppm [3]: ≥ 80% | pest or weed control at 200 ppm [4]: ≥ 80%

COCCN(Cc1ccc(-c2noc(C(F)(F)F)n2)cc1)C(=O)C(C)OC (stereo not drawn) [Compound 1.359, 2-methoxy-N-(2-methoxyethyl)-N-[[4-[5-(trifluoromethyl)-1,2,4-oxadiazol-3-yl]phenyl]methyl]-propanamide]
pest or weed control at 200 ppm [1]: ≥ 80% | inhibition of growth at 20 ppm [2]: ≥ 80% | pest or weed control at 200 ppm [3]: ≥ 80% | pest or weed control at 200 ppm [4]: ≥ 80%

C=CCN(Cc1ccc(-c2noc(C(F)(F)F)n2)cc1)C(=O)C(C)C [Compound 1.483, N-allyl-2-methyl-N-[[4-[5-(trifluoromethyl)-1,2,4-oxadiazol-3-yl]phenyl]methyl]-propanamide]
pest or weed control at 200 ppm [1]: ≥ 80% | inhibition of growth at 20 ppm [2]: ≥ 80% | pest or weed control at 200 ppm [3]: ≥ 80% | pest or weed control at 200 ppm [4]: ≥ 80%

CCN(Cc1ccc(-c2noc(C(F)(F)F)n2)cc1)C(=O)C(C)C [Compound 1.503]
pest or weed control at 200 ppm [1]: ≥ 80% | inhibition of growth at 20 ppm [2]: ≥ 80% | pest or weed control at 200 ppm [3]: ≥ 80% | pest or weed control at 200 ppm [4]: ≥ 80%

CCCN(Cc1ccc(-c2noc(C(F)(F)F)n2)cc1)C(=O)CCCOC [Compound 1.662, 4-methoxy-N-propyl-N-[[4-[5-(trifluoromethyl)-1,2,4-oxadiazol-3-yl]phenyl]methyl]-butanamide]
pest or weed control at 200 ppm [1]: ≥ 80% | inhibition of growth at 20 ppm [2]: ≥ 80% | pest or weed control at 200 ppm [3]: ≥ 80% | pest or weed control at 200 ppm [4]: ≥ 80%
